# Source: patent US8486693B2, “Modified dendritic cells having enhanced survival and immunogenicity and related compositions and methods” (Bellicum Pharmaceuticals, Inc., priority 2006, dated 2013)
# B1: Akt.KM: kinase-dead mutant (K179M) chimeric Akt (protein, UniProt P31750 1-480, looked up, variant K179M)
# RAC-alpha …: MNDVAIVKEGWLHKRGEYIKTWRPRYFLLKNDGTFIGYKERPQDVDQRESPLNNFSVAQCQLMKTERPRPNTFIIRCLQWTTVIERTFHVETPEEREEWATAIQTVADGLKRQEEETMDFRSGSPSDNSGAEEMEVSLAKPKHRVTMNEFEYLKLLGKGTFGKVILVKEKATGRYYAMMILKKEVIVAKDEVAHTLTENRVLQNSRHPFLTALKYSFQTHDRLCFVMEYANGGELFFHLSRERVFSEDRARFYGAEIVSALDYLHSEKNVVYRDLKLENLMLDKDGHIKITDFGLCKEGIKDGATMKTFCGTPEYLAPEVLEDNDYGRAVDWWGLGVVMYEMMCGRLPFYNQDHEKLFELILMEEIRFPRTLGPEAKSLLSGLLKKDPTQRLGGGSEDAKEIMQHRFFANIVWQDVYEKKLSPPFKPQVTSETDTRYFDEEFTAQMITITPPDQDDSMECVDSERRPHFPQFSYSASGTA
# modifications: chimeric
# System: NF-.kappa.B
# Assay: NF-.kappa.B/SEAP reporter assay in Jurkat-TAg cells (Example 10, iAkt)
# Assay type: cell-based, human
# Description: Jurkat-TAg cells in logarithmic-phase growth were electroporated ([…], 250 V; Gene Pulser II (BIO-RAD)) with expression plasmids and the NF-.kappa.B-SEAP reporter plasmid. After 24 hours, transfected cells were stimulated with sub-optimal levels of the phorbol ester PMA (5 ng/ml) along with log dilutions of the heterodimerizing CID, AP22783, and additional treatments. After an additional 24 hours, supernatants were assayed for SEAP activity.
# Two key requirements for efficient synthetic regulation of a biological event are highly specific conditional dependency and low background. […] Therefore, in order to optimize iAkt, an NF-.kappa.B-responsive secreted alkaline phosphatase (SEAP) reporter plasmid was used as an assay for Akt activation.
# Briefly, the human T cell line, Jurkat-TAg, was cotransfected with reporter plasmid, NF-.kappa.B/SEAP, along with constitutively active M-Akt expression vector or empty control vector. Twenty-four hours after transfection, cells were divided into aliquots that were stimulated with sub-optimal levels (5 ng/ml) of the phorbol ester, PMA, or were untreated. After an additional 24 hours, SEAP activity was measured. Although Akt activity alone was insufficient to induce measurable NF-.kappa.B activity, M-Akt expression potentiated (by 3-4 fold) PKC-induced NF-.kappa.B activity, consistent with multiple reports. […]
Molecule,"NF-.kappa.B activation by M-Akt plus PKC in presence of inhibitor (LY294002 5 μM, wortmannin 1 μM, R0318220 1 μM)","NF-.kappa.B induction on CID (AP22783)-mediated membrane recruitment via M-FRB12 (5 ng/ml PMA, log dilutions of AP22783)"
Cn1cc(C2=C(c3cn(CCCSC(=N)N)c4ccccc34)C(=O)NC2=O)c2ccccc21 [R0318220],complete inhibition of NF-.kappa.B,–
B1,–,no detectable effect on NF-.kappa.B induction over PMA alone
